Measured values taken from US9138411B2 (University of North Texas Health Science Center, priority 2012, dated 2015).

Settings: human, in vivo, 4.5 mg/kg

blood plasma levels: 5 to 11 µmol
SMILES: COc1cc(/C=C/C(=O)CC(=O)/C=C/c2ccc(O)c(OC)c2)ccc1O [curcumin, diferuloylmethane]
